Data published in publication PMC10086185, “Synthesis, radiolabeling, and evaluation of a (4-quinolinoyl)glycyl-2-cyanopyrrolidine analogue for fibroblast activation protein (FAP) PET imaging” (Frontiers in Bioengineering and Biotechnology, 2023).

Legend:
[1] = Lipid/water partition coefficient in octanol/PBS (log D 7.4); format: physicochemical; conditions: pH 7.4
Protocol: The lipid/water partition coefficient of [^18F]3 was tested in octanol/PBS mixtures, following the published literature reports ([Li et al., 2019]) and presented as log D 7.4 values. Briefly, a small volume of [^18F]3 was added into an octanol/water mixture, and then, a series of diluted octanol/PBS mixtures was obtained, as described in the literature. The CPM in octanol and the PBS layer was obtained in a Wizard 2470 gamma counter (PerkinElmer) and was used to calculate the lipid/PBS partition coefficient. Several continuous and stable partition coefficient values were selected to calculate the log D 7.4 values.

[2] = In vitro stability in PBS saline, 20% EtOH solution and rat serum (radio-HPLC); format: physicochemical; conditions: 4 h at 37°C
Protocol: The in vitro stability of [^18F]3 was performed in PBS saline, 20% EtOH solution, and rat serum. In general, a solution of [^18F]3 (50 µL, approximately 20 KBq) was added to the PBS saline (2 mL), 20% EtOH solution (2 mL), and rat serum (2 mL), and these solutions were suspended in a water bath under 37°C for […]. Samples from PBS saline and 20% EtOH solution were loaded into the analytical radio-HPLC for the detection of RCP at designated time points (0, 1, 2, and 4 h), with the same condition described previously. The samples from the rat serum were added the same volume of acetonitrile to deposit the plasma protein, and the supernatant obtained by centrifugation (×12,000 r/min, 5 min) was analyzed at corresponding time points.

[3] = tested on: A549-FAPI xenograft tumors; assay: Micro-PET/CT imaging, A549-FAPI xenograft tumors; format: in vivo, BALB/c nude mice
Protocol: BALB/c nude mice used in this study were obtained from the Animal Center of Sichuan University. Tumor-bearing mouse models were established by the subcutaneous injection of 100 µL of PBS suspension containing approximately 1*10^6 tumor cells to the body side of the subjects. The tumor volume was monitored every day, and the tumor-bearing mice were ready for imaging once the tumor volume reached 0.5 mm^3 (tumor volume can be calculated by this equation: Volume = 0.5 * long tail * short tail *short tail). Micro-PET/CT imaging studies were performed on the IRIS Micro-PET/CT system (Inviscan SAS, France). Tumor-bearing mice were injected with approximately 11.2–14.8 MBq of [^18F]3 (200 µL) via the tail vein under anaesthetization by isoflurane. Static PET images were obtained at designated time points and were reconstructed with a 3D-OSEM algorithm using a Monte Carlo-based accurate detector model. Then, 170 sec-CT acquisition was conducted with 50 kV, 1 mA X-ray output for attenuation correction and anatomical orientation. ROIs (regions of interest) were drawn on the lung, kidney, liver, and tumor by OsiriX software. SUV (standardized uptake value) of the ROIs was directly obtained from OsiriX for each subject according to this formula: SUV = Voxal value (Bq/mL) * Body weight (kg)/(Decay corrected Dose (Bq) * 1,000 (g/kg)).
BALB/c nude mice used in this study were obtained from the Animal Center of Sichuan university. Tumor-bearing mice model were established by the subcutaneous injection of 100 µL of PBS suspension containing approximately 1*10^6 tumor cells to the body side of the subjects. The tumor volume was monitored every day and the tumor-bearing mice were ready for imaging once the tumor volume reach 0.5 mm^3 (tumor volume can be calculated by this equation: Volume = 0.5 * long tail * short tail *short tail). Micro-PET/CT imaging studies were performed on the IRIS Micro-PET/CT system (Inviscan SAS, France). Tumor-bearing mice were injected with approximately 11.2-14.8 MBq of [^18F]3 (200 µL) via tail vein under anaesthetization by isoflurane. Static PET images were obtained at designated time points and were reconstructed with a 3D-OSEM algorithm using a Monte-Carlo based accurate detector model. A 170 sec-CT acquisition was conducted with 50 kV, 1 mA X-ray output for attenuation correction and anatomical orientation. ROIs (regions of interest) were drawn on lung, kidney, liver and tumor by Osirix software. SUV (standardized uptake value) of the ROIs was directly obtained from Osirix for each subject according to this formula: SUV = Voxal value (Bq/mL) * Body weight (kg)/(Decay corrected Dose (Bq) * 1000 (g/kg)).

[4] = A549-FAPI tumors, pre-injection of compound 3, 2 mg/kg

## N#C[C@@H]1CC(F)(F)CN1C(=O)CNC(=O)c1ccnc2ccc([18F])cc12 [[^18F]3]
[1]
  logD: 1.11
[2]
  intact [^18F]3: over 90%
[3]; A549-FAPI tumors, 90 min p.i.
  Tumor-to-muscle (T/M) ratio: 4.34
[3]; [4]
  Tumor SUV, blocking group: lower than 0.2
  Tumor-to-muscle (T/M) ratio, blocking group: less than 2.0
[3]; A549-FAPI xenografted tumors, within 90 min
  Tumor SUV: greater than 0.4
